Experimental data reported in ChEMBL document CHEMBL4364336, “Synthesis and exploration of 2-morpholino-4-phenylthiazol-5-yl acrylamide derivatives for their effects against carbonic anhydrase I, II, IX and XII isoforms as a non-sulfonamide class of inhibitors” (Bioorg Med Chem, 2019).

Assays:
[1] = target: Carbonic anhydrase 1 (Homo sapiens, UniProt P00915); experiment: Inhibition of recombinant human carbonic anhydrase1 preincubated for 10 mins followed by CO2 solution addition by phenol red dye based stopped flow CO2 hydration assay
[2] = target: Carbonic anhydrase 9 (Homo sapiens, UniProt Q16790); experiment: Inhibition of recombinant human carbonic anhydrase9 preincubated for 10 mins followed by CO2 solution addition by phenol red dye based stopped flow CO2 hydration assay
[3] = target: Carbonic anhydrase 2 (Homo sapiens, UniProt P00918); experiment: Inhibition of recombinant human carbonic anhydrase2 preincubated for 10 mins followed by CO2 solution addition by phenol red dye based stopped flow CO2 hydration assay
[4] = target: Carbonic anhydrase 12 (Homo sapiens, UniProt O43570); experiment: Inhibition of recombinant human carbonic anhydrase12 preincubated for 10 mins followed by CO2 solution addition by phenol red dye based stopped flow CO2 hydration assay
Carbonic anhydrase 12, sequence (O43570 whole entry): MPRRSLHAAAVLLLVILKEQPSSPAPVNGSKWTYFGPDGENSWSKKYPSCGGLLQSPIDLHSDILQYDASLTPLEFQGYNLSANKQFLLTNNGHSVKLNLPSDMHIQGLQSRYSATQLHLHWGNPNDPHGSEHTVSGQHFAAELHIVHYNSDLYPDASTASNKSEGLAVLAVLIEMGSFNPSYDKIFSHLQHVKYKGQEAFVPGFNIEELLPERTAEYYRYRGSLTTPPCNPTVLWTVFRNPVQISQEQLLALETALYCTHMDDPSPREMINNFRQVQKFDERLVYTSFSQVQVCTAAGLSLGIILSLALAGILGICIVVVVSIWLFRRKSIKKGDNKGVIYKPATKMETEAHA

Carbonic anhydrase 1, sequence (P00915 whole entry): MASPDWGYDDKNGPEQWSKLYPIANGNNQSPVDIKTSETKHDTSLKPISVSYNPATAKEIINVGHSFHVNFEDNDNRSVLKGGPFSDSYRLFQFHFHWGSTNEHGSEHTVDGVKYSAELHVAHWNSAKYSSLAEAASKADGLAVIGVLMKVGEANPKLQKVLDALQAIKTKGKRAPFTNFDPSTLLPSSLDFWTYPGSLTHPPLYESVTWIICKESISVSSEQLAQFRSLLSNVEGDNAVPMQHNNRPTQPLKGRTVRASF

## Nc1ccccc1NC(=O)/C=C/c1sc(N2CCOCC2)nc1-c1ccc([N+](=O)[O-])cc1
[1]
  Ki: > 100 µM
[2]
  Ki: 96.7 µM
[3]
  Ki: 77.7 µM
[4]
  Ki: > 100 µM

## O=C(/C=C/c1sc(N2CCOCC2)nc1-c1ccc(Cl)cc1)Nc1ccc(Br)cc1
[1]
  Ki: > 100 µM
[2]
  Ki: 96.5 µM
[3]
  Ki: 67.8 µM
[4]
  Ki: > 100 µM

## COc1ccc(NC(=O)/C=C/c2sc(N3CCOCC3)nc2-c2ccccc2)cc1OC
[1]
  Ki: > 100 µM
[2]
  Ki: > 100 µM
[3]
  Ki: > 100 µM
[4]
  Ki: > 100 µM

## COc1ccc(NC(=O)/C=C/c2sc(N3CCOCC3)nc2-c2ccccc2)cc1
[1]
  Ki: > 100 µM
[2]
  Ki: > 100 µM
[3]
  Ki: > 100 µM
[4]
  Ki: > 100 µM

## COc1ccc(NC(=O)/C=C/c2sc(N3CCOCC3)nc2-c2ccc(Cl)cc2)cc1OC
[1]
  Ki: > 100 µM
[2]
  Ki: > 100 µM
[3]
  Ki: > 100 µM
[4]
  Ki: > 100 µM

## COc1ccc(NC(=O)/C=C/c2sc(N3CCOCC3)nc2-c2ccc([N+](=O)[O-])cc2)cc1OC
[1]
  Ki: > 100 µM
[2]
  Ki: > 100 µM
[3]
  Ki: > 100 µM
[4]
  Ki: > 100 µM

## COc1ccc(NC(=O)/C=C/c2sc(N3CCOCC3)nc2-c2ccc(Cl)cc2)cc1
[1]
  Ki: > 100 µM
[2]
  Ki: 94.9 µM
[3]
  Ki: 50.4 µM
[4]
  Ki: 7.5 µM

## O=C(/C=C/c1sc(N2CCOCC2)nc1-c1ccccc1)Nc1ccc(Br)cc1
[1]
  Ki: > 100 µM
[2]
  Ki: > 100 µM
[3]
  Ki: > 100 µM
[4]
  Ki: > 100 µM

## COc1ccc(-c2nc(N3CCOCC3)sc2/C=C/C(=O)Nc2cc(OC)c(OC)c(OC)c2)cc1
[1]
  Ki: > 100 µM
[2]
  Ki: > 100 µM
[3]
  Ki: > 100 µM
[4]
  Ki: > 100 µM

## Nc1ccccc1NC(=O)/C=C/c1sc(N2CCOCC2)nc1-c1ccccc1
[1]
  Ki: > 100 µM
[2]
  Ki: > 100 µM
[3]
  Ki: > 100 µM
[4]
  Ki: > 100 µM

## O=C(/C=C/c1sc(N2CCOCC2)nc1-c1ccc([N+](=O)[O-])cc1)Nc1ccc(Br)cc1
[1]
  Ki: > 100 µM
[2]
  Ki: 54.7 µM
[3]
  Ki: 9.3 µM
[4]
  Ki: 8.8 µM

## COc1cc(NC(=O)/C=C/c2sc(N3CCOCC3)nc2-c2ccccc2)cc(OC)c1OC
[1]
  Ki: > 100 µM
[2]
  Ki: > 100 µM
[3]
  Ki: > 100 µM
[4]
  Ki: > 100 µM

## COc1cc(NC(=O)/C=C/c2sc(N3CCOCC3)nc2-c2ccc(Cl)cc2)cc(OC)c1OC
[1]
  Ki: > 100 µM
[2]
  Ki: > 100 µM
[3]
  Ki: > 100 µM
[4]
  Ki: > 100 µM

## COc1ccc(-c2nc(N3CCOCC3)sc2/C=C/C(=O)Nc2ccc(OC)c(OC)c2)cc1
[1]
  Ki: > 100 µM
[2]
  Ki: > 100 µM
[3]
  Ki: > 100 µM
[4]
  Ki: > 100 µM

## COc1ccc(-c2nc(N3CCOCC3)sc2/C=C/C(=O)Nc2ccc(Br)cc2)cc1
[1]
  Ki: > 100 µM
[2]
  Ki: > 100 µM
[3]
  Ki: > 100 µM
[4]
  Ki: > 100 µM

## COc1ccc(NC(=O)/C=C/c2sc(N3CCOCC3)nc2-c2ccc([N+](=O)[O-])cc2)cc1
[1]
  Ki: > 100 µM
[2]
  Ki: 54.7 µM
[3]
  Ki: 39.2 µM
[4]
  Ki: 4.6 µM

## Nc1ccccc1NC(=O)/C=C/c1sc(N2CCOCC2)nc1-c1ccc(Cl)cc1
[1]
  Ki: > 100 µM
[2]
  Ki: > 100 µM
[3]
  Ki: > 100 µM
[4]
  Ki: > 100 µM

## COc1ccc(-c2nc(N3CCOCC3)sc2/C=C/C(=O)Nc2ccccc2N)cc1
[1]
  Ki: > 100 µM
[2]
  Ki: > 100 µM
[3]
  Ki: > 100 µM
[4]
  Ki: > 100 µM

## COc1ccc(NC(=O)/C=C/c2sc(N3CCOCC3)nc2-c2ccc(OC)cc2)cc1
[1]
  Ki: > 100 µM
[2]
  Ki: > 100 µM
[3]
  Ki: > 100 µM
[4]
  Ki: > 100 µM
